Results published in the supplement of paper PMC10307832.

Columns and labels:
Test in all cases: relative viability (nuclei count vs DMSO), 5 days (fraction); higher = more cells survive
NCI-H1355 = tested on: NCI-H1355
Procedure, shortened: (§1)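 After 5 days of treatment, lung cancer cells in 1536-well plates were fixed and stained in a single step (final 0.05% Triton X-100, 1% formaldehyde, 1 ug/ml Hoechst) and their nuclei counted on 4× images. Treatment had been applied by pin tool the day after seeding as one drug alone or as a fixed anchor-drug dose with five library-drug doses (not always all listed) in √10 steps. Relative viability is the nuclei count of treated wells divided by that of vehicle wells, and values are medians of duplicate plates.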

NCI-H2126 = tested on: NCI-H2126
Procedure, shortened: as §1

LK-2 = tested on: LK-2
Procedure, shortened: as §1

Calu-6 = tested on: Calu-6
Procedure, shortened: as §1

NCI-H1703 = tested on: NCI-H1703
Procedure, shortened: as §1

EBC-1 = tested on: EBC-1
Procedure, shortened: as §1

A549 = tested on: A549
Procedure, shortened: as §1

IA-LM = tested on: IA-LM
Procedure, shortened: as §1

NCI-H1299 = tested on: NCI-H1299
Procedure, shortened: as §1

NCI-H1563 = tested on: NCI-H1563
Procedure, shortened: as §1

## C=C1C(=O)O[C@@H](CCCCCCCC)[C@@H]1C(=O)O [C-75] + CC(=O)c1c(C)c2cnc(Nc3ccc(N4CCNCC4)cn3)nc2n(C2CCCC2)c1=O [Palbociclib] (partner 0.5 µM)
NCI-H1355; first compound 0.08 µM
  relative viability: 0.402
NCI-H1355; first compound 0.253 µM
  relative viability: 0.388
NCI-H1355; first compound 0.8 µM
  relative viability: 0.428
NCI-H1355; first compound 2.53 µM
  relative viability: 0.364
NCI-H1355; first compound 8 µM
  relative viability: 0.463
NCI-H2126; first compound 0.08 µM
  relative viability: 0.348
NCI-H2126; first compound 0.253 µM
  relative viability: 0.35
NCI-H2126; first compound 0.8 µM
  relative viability: 0.335
NCI-H2126; first compound 2.53 µM
  relative viability: 0.349
NCI-H2126; first compound 8 µM
  relative viability: 0.339
LK-2; first compound 0.08 µM
  relative viability: 0.779
LK-2; first compound 0.253 µM
  relative viability: 0.754
LK-2; first compound 0.8 µM
  relative viability: 0.723
LK-2; first compound 2.53 µM
  relative viability: 0.495
LK-2; first compound 8 µM
  relative viability: 0.573

## C=C1C(=O)O[C@@H](CCCCCCCC)[C@@H]1C(=O)O [C-75] + CC1(C)CCC(c2ccc(Cl)cc2)=C(CN2CCN(c3ccc(C(=O)NS(=O)(=O)c4ccc(N[C@H](CCN5CCOCC5)CSc5ccccc5)c(S(=O)(=O)C(F)(F)F)c4)cc3)CC2)C1 [Navitoclax] (partner 0.5 µM)
Calu-6; first compound 0.08 µM
  relative viability: 0.819
Calu-6; first compound 0.253 µM
  relative viability: 0.864
Calu-6; first compound 0.8 µM
  relative viability: 0.786
Calu-6; first compound 2.53 µM
  relative viability: 0.738
Calu-6; first compound 8 µM
  relative viability: 0.714
NCI-H1355; first compound 0.08 µM
  relative viability: 0.951
NCI-H1355; first compound 0.253 µM
  relative viability: 0.894
NCI-H1355; first compound 0.8 µM
  relative viability: 0.867
NCI-H1355; first compound 2.53 µM
  relative viability: 0.952
NCI-H1355; first compound 8 µM
  relative viability: 0.956
NCI-H2126; first compound 0.08 µM
  relative viability: 0.869
NCI-H2126; first compound 0.253 µM
  relative viability: 0.902
NCI-H2126; first compound 0.8 µM
  relative viability: 0.871
NCI-H2126; first compound 2.53 µM
  relative viability: 0.718
NCI-H2126; first compound 8 µM
  relative viability: 0.818
NCI-H1703; first compound 0.08 µM
  relative viability: 1.15
NCI-H1703; first compound 0.253 µM
  relative viability: 1.12
NCI-H1703; first compound 0.8 µM
  relative viability: 0.817
NCI-H1703; first compound 2.53 µM
  relative viability: 1.09
NCI-H1703; first compound 8 µM
  relative viability: 0.967
LK-2; first compound 0.08 µM
  relative viability: 0.819
LK-2; first compound 0.253 µM
  relative viability: 0.883
LK-2; first compound 0.8 µM
  relative viability: 1.02
LK-2; first compound 2.53 µM
  relative viability: 0.769
LK-2; first compound 8 µM
  relative viability: 0.648
EBC-1; first compound 0.08 µM
  relative viability: 0.389
EBC-1; first compound 0.253 µM
  relative viability: 0.508
EBC-1; first compound 0.8 µM
  relative viability: 0.306
EBC-1; first compound 2.53 µM
  relative viability: 0.356
EBC-1; first compound 8 µM
  relative viability: 0.219
A549; first compound 0.08 µM
  relative viability: 1.12
A549; first compound 0.253 µM
  relative viability: 1.29
A549; first compound 0.8 µM
  relative viability: 1.18
A549; first compound 2.53 µM
  relative viability: 0.819
A549; first compound 8 µM
  relative viability: 1.15
IA-LM; first compound 0.08 µM
  relative viability: 0.754
IA-LM; first compound 0.253 µM
  relative viability: 0.834
IA-LM; first compound 0.8 µM
  relative viability: 0.819
IA-LM; first compound 2.53 µM
  relative viability: 0.52
IA-LM; first compound 8 µM
  relative viability: 0.512
NCI-H1299; first compound 0.08 µM
  relative viability: 1.07
NCI-H1299; first compound 0.253 µM
  relative viability: 1.03
NCI-H1299; first compound 0.8 µM
  relative viability: 1.05
NCI-H1299; first compound 2.53 µM
  relative viability: 1.03
NCI-H1299; first compound 8 µM
  relative viability: 1.12

## C=C1C(=O)O[C@@H](CCCCCCCC)[C@@H]1C(=O)O [C-75] + Nc1nc2[nH]cc(CCc3ccc(C(=O)N[C@@H](CCC(=O)O)C(=O)O)cc3)c2c(=O)[nH]1 [Pemetrexed] (partner 0.2 µM)
NCI-H1355; first compound 0.08 µM
  relative viability: 1.01
NCI-H1355; first compound 0.253 µM
  relative viability: 1.04
NCI-H1355; first compound 0.8 µM
  relative viability: 1.05
NCI-H1355; first compound 2.53 µM
  relative viability: 1.02
NCI-H1355; first compound 8 µM
  relative viability: 0.974
NCI-H2126; first compound 0.08 µM
  relative viability: 0.727
NCI-H2126; first compound 0.253 µM
  relative viability: 0.681
NCI-H2126; first compound 0.8 µM
  relative viability: 0.725
NCI-H2126; first compound 2.53 µM
  relative viability: 0.622
NCI-H2126; first compound 8 µM
  relative viability: 0.673
LK-2; first compound 0.08 µM
  relative viability: 0.214
LK-2; first compound 0.253 µM
  relative viability: 0.301
LK-2; first compound 0.8 µM
  relative viability: 0.215
LK-2; first compound 2.53 µM
  relative viability: 0.2
LK-2; first compound 8 µM
  relative viability: 0.246
NCI-H1563; first compound 0.08 µM
  relative viability: 0.8
NCI-H1563; first compound 0.253 µM
  relative viability: 0.915
NCI-H1563; first compound 0.8 µM
  relative viability: 0.753
NCI-H1563; first compound 2.53 µM
  relative viability: 0.666
NCI-H1563; first compound 8 µM
  relative viability: 0.924

## C=C1C(=O)O[C@@H](CCCCCCCC)[C@@H]1C(=O)O [C-75] + NC(=O)Nc1cc(-c2cccc(F)c2)sc1C(=O)N[C@H]1CCCNC1 [AZD7762] (partner 0.2 µM)
NCI-H1355; first compound 0.08 µM
  relative viability: 0.742
NCI-H1355; first compound 0.253 µM
  relative viability: 0.831
NCI-H1355; first compound 0.8 µM
  relative viability: 0.738
NCI-H1355; first compound 2.53 µM
  relative viability: 0.663
NCI-H1355; first compound 8 µM
  relative viability: 0.764
NCI-H2126; first compound 0.08 µM
  relative viability: 0.953
NCI-H2126; first compound 0.253 µM
  relative viability: 1.13
NCI-H2126; first compound 0.8 µM
  relative viability: 0.965
NCI-H2126; first compound 2.53 µM
  relative viability: 0.886
NCI-H2126; first compound 8 µM
  relative viability: 1.01
NCI-H1703; first compound 0.08 µM
  relative viability: 0.125
NCI-H1703; first compound 0.253 µM
  relative viability: 0.126
NCI-H1703; first compound 0.8 µM
  relative viability: 0.115
NCI-H1703; first compound 8 µM
  relative viability: 0.149
LK-2; first compound 0.08 µM
  relative viability: 0.355
LK-2; first compound 0.253 µM
  relative viability: 0.699
LK-2; first compound 0.8 µM
  relative viability: 0.299
LK-2; first compound 2.53 µM
  relative viability: 0.289
LK-2; first compound 8 µM
  relative viability: 0.255
